Laboratory results reported in paper PMC10584170, “Machine learning-based phenotypic imaging to characterise the targetable biology of Plasmodium falciparum male gametocytes for the development of transmission-blocking antimalarials” (PLOS Pathogens, 2023).
pIC50: −log10 of the molar value. Like-named read-outs stand apart in the source and are kept apart here.

What was measured:
[1] = system: P. falciparum female gametocytes; test: P. falciparum Dual Gamete Formation Assay (PfDGFA), female readout (Pfs25-positive female gametes); format: cell-based, Plasmodium falciparum NF54; conditions: for pIC50: this study, read-out: Pf DGFA IC50 FEM
Summary of the method: (§1)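 NF54 mature gametocytes (d14), cpd 24 h 37°C hypoxic gas; trigger: xanthurenic acid ookinete medium + Cy3 anti-Pfs25, 4°C 4 min → 28°C 4 min. Male: exflagellation centres, brightfield x6. Female: Pfs25+ gametes, fluorescence, +24 h 28°C dark.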

[2] = system: P. falciparum female gametocytes; parameters: method as in Miguel-Blanco et al 2017; conditions: ref Miguel-Blanco et al 2017; read-out: Pf female gametogenesis FGAA IC50; cited from earlier work
[3] = system: P. falciparum gametocytes; parameters: method as in Almela et al 2015; conditions: ref Almela et al 2015; read-out: Pf Gametocyte viability (ATP) GC-ATP IC50; cited from earlier work
HepG2 cells [4] = test: HepG2 cytotoxicity counter-screen; conditions: mean of the HepG2 TOX50 values
HepG2 cells [5] = conditions: cited from earlier work
[6] = system: P. falciparum male gametocytes; test: PhIDDLI timecourse assay, compound added at timepoints after triggering male gametogenesis; format: cell-based, Plasmodium falciparum NF54; conditions: for impact on exflagellation: compound added concurrent with triggering gametogenesis or at any other point
Description: To gain greater understanding of their activity, selected molecules displaying different inhibition phenotypes in the initial screen were re-tested. Rather than subjecting gametocytes to a 24h preincubation prior to inducing gametogenesis, compounds were added at varying timepoints after triggering male gametogenesis. Samples were then fixed 20 min post-induction, imaged and analysed similarly using the PhIDDLI pipeline.
Alternatively, if compound action over time was to be assessed, 1.5ml tubes with appropriate dilutions of test compounds were prepared for each timepoint. Gametogenesis was then triggered in the mature gametocyte culture with ookinete medium and temperature decrease from 37°C. At appropriate times, 200 μl of triggered culture was sampled and mixed with test compound. All samples were then allowed to continue gametogenesis and fixed as described previously with paraformaldehyde after 20 min (when a DMSO-treated sample could be expected to be exflagellating).
100 μl of the fixed cell suspensions were added to wells of a 24 well plate containing 1ml PBS and a poly-l-lysine-coated glass coverslip. Cells were allowed to settle and adhere to the coverslip overnight at 4°C before coverslips were transferred to a hydrophobic membrane (Parafilm) for immunofluorescence staining in a humidified, dark box. Cells were permeabilised with 0.1% Triton-X100 in PBS for 10 min before washing in PBS three times. Non-specific binding was blocked by incubating coverslips with PBS + 10% fetal bovine serum (FBS) (blocking buffer) for 1 h. Gametocytes and microgametes were visualised by labelling with an anti-alpha tubulin antibody (raised from chicken embryo brain tubulin but cross-reacts with many other species) (clone DM1A (Sigma)) 1:500 dilution in blocking buffer for 1 h, washed as before, and then stained with an anti-mouse Alexa488 secondary antibody (Thermo-Fisher) 1:1,000 dilution in blocking buffer for a further 1 h. After a final series of washes, the coverslips were mounted on glass slides with VectaShield mountant (Vector Laboratories) containing 4′,6-diamidino-2-phenylindole (DAPI) to visualise cellular DNA.
All slides were imaged using a Nikon Ti fluorescence microscope using an x100 oil objective and 1.5x zoom. For each sample, tubulin-postive, DAPI-positive stained gametocytes/gametes were imaged at random. Z-stack images with 0.3μm slices were captured for each field of view and images deconvolved and transformed by maximum intensity projection within the Nikon NIS Elements software. Within raw images, cells were initially identified by an automated analysis pipeline developed in ICY Bioimage Analysis based upon the intensity of the tubulin staining captured which assigns a region of interest (ROI) around each cell. All ROIs were reviewed by a trained operator and adjusted if necessary to reflect the true outline of the cell (for example if two cells touching had been allocated the same ROI). Raw images contained between 1 and 8 extractable cells.
Code for the PhIDDLI pipeline was written in Python 3.8 and executed by command line within a 64-bit Ubuntu virtual machine running within Oracle VM VirtualBox 6.1. […] Principle component analysis of compound phenotypes (Fig 5) was performed using ClustViz (https://biit.cs.ut.ee/clustvis/) using ln(x+1) transformation, and k-means clustering of the resultant PCA data was coded in R and executed in R Studio version 1.1.456 to identify optimum cluster using the elbow method.

[7] = system: P. falciparum female gametocytes; test: P. falciparum Female Gametocyte Activation Assay (PfFGAA); format: cell-based, Plasmodium falciparum; conditions: Mean TOX HepG2 over FGAA IC50; GREEN = >10-fold; RED = <10-fold
[8] = system: P. falciparum male gametocytes; test: P. falciparum Dual Gamete Formation Assay (PfDGFA), male readout (exflagellation); format: cell-based, Plasmodium falciparum NF54; conditions: for pIC50: this study, read-out: Pf DGFA IC50 MALE
Summary of the method: as §1

[9] = system: P. falciparum gametocytes; test: P. falciparum Gametocyte Viability ATP Assay (PfGCT); format: cell-based, Plasmodium falciparum; conditions: Mean TOX HepG2 over GC-ATP IC50; GREEN = >10-fold; RED = <10-fold
Text: Fig 1 The activity of TCAMS compound identified in the Pf DGFA screen. (A) 85 molecules were confirmed active in the Pf DGFA. 58 were previously identified in one or more transmission-blocking screens. […] No molecule was identified with >4.7-fold greater activity against female gametocytes. Abbreviations (IC50 = concentration giving 50% inhibition, PbODA = P. berghei Ookinete Development Assay, PfDGFA = P. falciparum Dual Gamete Formation Assay, PfFGAA = P. falciparum Female Gametocyte Activation Assay, PfGCT = P. falciparum Gametocyte Viability ATP Assay).

[10] = system: P. falciparum male gametocytes; test: PhIDDLI screening assay, 24 h preincubation at 10xIC50, tubulin/DAPI imaging of male gametogenesis; format: cell-based, Plasmodium falciparum NF54; conditions: approximately 10xIC50, fixed 20 min post-induction
Description: Mature gametocytes were treated for 24h with approximately 10xIC50 of test compounds or DMSO as a solvent control. Male gametogenesis was then induced by lowering the temperature from 37°C to ~20°C and adding xanthurenic acid. 20min later, when male gametogenesis (exflagellation) could be expected to peak, all samples were fixed. A sample of non-induced DMSO-treated gametocytes was fixed with 4% paraformaldehyde to provide an unactivated gametocyte control for comparison. The cells were then processed for immunofluorescence using an antibody against alpha-tubulin II and DNA staining with 4′,6-diamidino-2-phenylindole (DAPI) and visualised by fluorescence microscopy. Tubulin-bright cells from each treated sample were imaged and captured at random.
Cells were identified using a semi-automated pipeline established in the ICY BioImageAnalysis (https://icy.bioimageanalysis.org/) protocols module. Images and accompanying bounding boxes representing the outlines of identified cells were then passed to the PhIDDLI pipeline. PhIDDLI consists of several open source image processing and AI/ML modules connected for seamless processing, clustering and visualisation of cellular phenotypes (Fig 3A). […] To focus on the overall cellular phenotype rather than potentially confounding variable immunostaining intensities between experimental replicates, cells were transformed so that the range of staining intensities for each channel were normalised to fall between a 0–255 pixel intensity value. Then, using the Albumentations module (https://albumentations.ai/) to augment the dataset and control for cells in different orientations, each extracted cell image was rotated 90, 180 and 270 degrees and mirrored so that each cell was represented eight different times in the dataset. The augmented images were then passed to the EffcientNet-B1 module (https://github.com/tensorflow/tpu/tree/master/models/official/efficientnet) (a pretrained neural network developed for image processing) which extracted 1,000 distinct numerical features from each individual cell image. The EfficientNet-B1 was selected from amongst the other EfficientNet models due to its input image size (240 pixels) best matching the size of the individual cell images in the dataset, therefore ensuring maximal input data whilst allowing acceptable computation time on a desktop computer. […]
Mature gametocyte cultures were divided into 100 μl “microcultures” in pre-warmed 1.5 ml tubes also containing 100 μl complete culture medium with test compounds at a final concentration of 10xIC50 or 0.5% DMSO as a solvent control. Tubes were gassed and incubated at 37°C for 24 h. The entire compound library was screened once, spread over four different experiments, each with two DMSO control tubes. An 8% formaldehyde solution was prepared by diluting 16% methanol-free formaldehyde in an equal volume of phosphate-buffered saline (PBS). In each experiment, one DMSO control tube was fixed with equal volume of 8% formaldehyde (4% final concentration) at 37°C to provide an “unactivated” gametocyte control. Gametogenesis was then triggered in the remaining DMSO control tube and all compound tubes by adding 10 μl ookinete medium, and they were immediately incubated at room temperature. After 20 min (when exflagellation is maximal), all remaining tubes were fixed for 30 min.
100 μl of the fixed cell suspensions were added to wells of a 24 well plate containing 1ml PBS and a poly-l-lysine-coated glass coverslip.

[11] = system: P. berghei ookinete development; test: P. berghei Ookinete Development Assay (PbODA); format: cell-based, Plasmodium berghei; conditions: Mean TOX HepG2 over Pb ODA value; GREEN = >10-fold; RED = <10-fold

Row | SMILES | Cytotox ratio Pf Female [1] | pIC50 [1] | pIC50 [2] | pIC50 [3] | Mean TOX (HepG2 cells [4]) | FGAA TOX50 HepG2 (HepG2 cells [5]) | GC-ATP TOX50 HepG2 (HepG2 cells [5]) | impact on exflagellation [6] | Cytotox ratio Pf FGAA [7] | Cytotox ratio Pf Male [8] | pIC50 [8] | Cytotox ratio Pf GC-ATP [9] | Cellular phenotype of male gametocytes [10] | ODA TOX50 HepG2 (HepG2 cells [5]; HepG2 value reported with the ODA screen, ref Delves et al 2019) | Cytotox ratio Pb Ookinete [11] | cells exflagellating ([6]; compound added concurrent with triggering gametogenesis, DMSO control 43.7%)
1 | CC(C)(C)c1ccc(-c2nc3c(ccc4nc(N)nc(N)c43)[nH]2)cc1.Cl [TC05] | 3.2 | 6.01 | 6.59 | 6.68 | 3.07 µM | 2.12 µM | 3.85 µM | little-to-no impact | 11.8 | 17.1 | 6.74 | 14.6 | – | – | – | –
2 | O=S(=O)(NCC1(O)CCOc2ccccc21)c1ccc(Br)s1 (stereo not drawn) [DDD01035881, reference compound] | – | – | – | – | – | – | – | – | – | – | – | – | arrested male gametogenesis late | – | – | –
3 | COc1ccc2nc3cc(Cl)ccc3c(NCCCCNc3c4ccc(Cl)cc4nc4ccc(OC)cc34)c2c1 [TC02] | 22.1 | 6.42 | – | 6.70 | 8.39 µM | – | 14.47 µM | little-to-no impact | – | 22.1 | 6.42 | 42.0 | – | – | – | –
4 | COc1cc(-c2nc(C(C)(C)CN)[nH]c2-c2ccncc2)ccc1Br.Cl [TC27] | 25.9 | 5.79 | – | – | 41.74 µM | – | – | – | – | 23.6 | 5.75 | – | unactivated phenotype consistent with total arrest of gametogenesis | 39.811 µM | 31592.6 | –
5 | CCN(CC)CCN(Cc1ccc(-c2ccc(C(F)(F)F)cc2)cc1)C(=O)Cn1cc(Cc2cnn(C)c2)c(=O)nc1/C=C/c1cccc(F)c1F.O=C(O)C(O)C(O)C(=O)O [TC18] | 3.0 | 5.39 | 6.06 | 6.77 | 12.35 µM | 9.69 µM | 14.4 µM | – | 14.2 | 19.6 | 6.20 | 72.7 | retain their falciform shape but have a condensed mass of unreplicated DNA and several thin microtubule structures | – | – | –
6 | O=C(c1ccc([N+](=O)[O-])o1)N1CCC(Cc2ccc(C(F)(F)F)cc2)CC1 [TC15] | 52.7 | 6.36 | 6.80 | 6.59 | 23.20 µM | 27.05 µM | 14.11 µM | – | 145.0 | 58.0 | 6.40 | 89.2 | retain their falciform shape but have a condensed mass of unreplicated DNA and several thin microtubule structures | – | – | –
7 | Fc1ccc2[nH]c(-c3ccc(-c4ccc(CNCCN5CCNCC5)cc4)s3)nc2c1.O=C(O)C(F)(F)F [TC23] | 3.4 | 5.14 | – | 6.28 | 24.53 µM | – | 25 µM | – | – | 12.4 | 5.71 | 46.3 | – | – | – | 19.8%
